Data set [1] can be described thus: Serum stability in mouse serum (agarose gel electrophoresis). The format is in vitro ADME. The following applies: 37 °C. The procedure: Five microliters of 20 μM cRGD-siEGFR or EGFR siRNA was mixed with 5 μL of mouse serum and incubated at 37 °C for 0, 12, 24, 36 and 48 h. Aliquots were taken at each of the time points and subjected to electrophoresis in 1.2% non-denaturing agarose gels.
(§1) Figure S1. The characterization of cRGD-siEGFR conjugates and silencing efficiency of EGFR siRNA sequences. (A) The identification of cRGD-siEGFR by HPLC-MS. The measured mass of the sense strand conjugated with cRGD is 7923.4 Da (predicted mass is 7921.4 Da). (B) The analysis of purified cRGD-siEGFR with RP-HPLC. The purity of cRGD-siEGFR, calculated by the peak area normalization method, was 88.0%. (C) The serum stability of cRGD-siEGFR and EGFR siRNA sequences. Molecules were incubated in mouse serum at 37°C for the indicated time periods and then analyzed using agarose (1.2%) gel electrophoresis. (D) Gene silencing efficiency. U87MG cells were treated for 48 h with EGFR-targeting siRNAs, complexed with Lipofectamine 2000. The expression level of EGFR mRNA was analyzed by qRT-PCR. * P<0.05 vs. control group, # P<0.05 vs. siNC group, n=3

A further data set relates to EGFR mRNA. Nature of the data set: Gene silencing efficiency of EGFR siRNA sequences complexed with Lipofectamine 2000 (qRT-PCR). The class given is cell-based, human. The following applies: U87MG cells, 48 h, complexed with Lipofectamine 2000, EGFR mRNA by qRT-PCR, n=3. As for the experimental part:
The relative expression level of EGFR mRNA was tested by qRT-PCR.
The qRT-PCR and western blot analysis were conducted as previously described (Liu et al., [2014]).
as §1
A general note: Real-time PCR tracks product formation cycle by cycle.

Oligonucleotides are written 5' to 3', each unit as a sugar letter and its base; * is a phosphorothioate linkage, no mark a phosphodiester; rarer units and linkages stand in square brackets, end groups in braces. Plain capitals give the bases only. d = 2'-deoxy (DNA); m = 2'-O-methyl; r = 2'-OH (RNA)

For the substance “unmodified RNA oligonucleotides: Sense 5’CAAAGUGUGUAACGGAAUAdTdT-3’; antisense 5’UAUUCCGUUACACACUUUGdTdT-3’ (sense rCrArArArGrUrGrUrGrUrArArCrGrGrArArUrAdTdT; antisense rUrArUrUrCrCrGrUrUrArCrArCrArCrUrUrUrGdTdT)”, the “degradation in mouse serum after 24 h” value in data set [1] (5 μL of 20 μM mixed with 5 μL mouse serum, 24 h, 1.2% non-denaturing agarose gel electrophoresis) was “mostly degraded”.

With “EGFR siRNA-C: Sense 5’mCmAmAAGUGUGUAACGGAmAmUmAdTdT-3’; antisense 5’mUmAmUUCCGUUACACACUmUmUmGdTdT-3’ (sense CAAAGUGUGUAACGGAAUATT; antisense UAUUCCGUUACACACUUUGTT; sugars from the 5' end m3 r13 m3 d2, backbone not given here; further chemistry not fully specified)”, the “stability (three 2′-O-Me modifications on both ends of both strands)” value in data set [1] (mouse serum, agarose gel electrophoresis) is recorded as “obviously improved”. The silencing efficiency entry with EGFR mRNA is listed as “over 80%”.

The values are drawn from article PMC8241002, “A tumor-targeting cRGD-EGFR siRNA conjugate and its anti-tumor effect on glioblastoma in vitro and in vivo” (Drug Delivery, 2017).
